Experimental data from PubChem BioAssay AID1645848.
In brackets after ≈: the same amount, converted by molar mass.

Details: buffer; pH 7.4; 6.0 h; 150.0 µM

| SMILES | solubility kinetic [µg/mL] |
| --- | --- |
| Cc1cc(C)nc(NC(=S)N2CCN(c3ccc(Cl)cc3F)CC2)c1 | 3.36 (≈ 8.88 µM) |
| CC(=O)NCCNC[C@@H]1C=C(C)[C@H](Cc2nnc(-c3ccccc3)o2)C[C@H]1C(C)C | > 61 |
| C=C1c2cccc(O)c2C(O)=C2C(=O)[C@]3(O)C(O)=C(C(N)=O)C(=O)[C@@H](N(C)C)[C@@H]3[C@@H](O)[C@H]12 | > 65 |
| O=C(Nc1ncc(Cc2ccc(C(F)(F)F)cc2)s1)c1cnc(-c2ccccc2)s1 | < 1 |
| CCOc1ccc(CCNC(=O)c2cc3sccc3n2Cc2ccccn2)cc1OCC | < 1 |
| Fc1ccccc1Nc1nc(-c2ccncc2)nc2ccccc12 | < 1 |
| CC[C@@H](C)Nc1cc(C(=O)NC2CC3CCC(C2)N3c2ccc(C(=O)C3CC3)cn2)c(C)cc1C(N)=O (stereo partly drawn) | < 1 |
| COc1cc(-c2nc(Cn3nnc(C(=O)Nc4cc(C)cc(C)c4)c3C)c(C)o2)cc(OC)c1OC | < 1 |
| Cc1ccccc1C(=O)N1CCc2cc(-n3cc(NC(=O)Cc4ccccc4)cn3)ccc21 | < 1 |
| CCN(CCN(C)C)C(=O)C1CCN(S(=O)(=O)c2c(C)noc2/C=C/c2ccccc2F)CC1 | > 49 |
| COc1ccc(-n2nc(C3CCCN(C(=O)c4ccccc4F)C3)[nH]c2=O)cc1 (stereo not drawn) | 37.3 (≈ 94.1 µM) |
| Cc1ccc(C(=O)Nc2nc(-c3ccccn3)cs2)cc1S(=O)(=O)N1CCOCC1 | 7.21 (≈ 16.2 µM) |
| CC1Cc2cc(S(=O)(=O)NCc3ccc(N(C)C)cc3)ccc2N1C(=O)C1CCC1 (stereo not drawn) | 3.08 (≈ 7.2 µM) |
| O=C1CCCC2=C1C(c1ccncc1Cl)N=C(Nc1nc3ccccc3o1)N2 (stereo not drawn) | 8.82 (≈ 22.4 µM) |
| CCOc1ccc(CCNC(=O)c2cc3cnccc3n2Cc2cccc(C)c2)cc1OCC | > 68 |
| NC(=O)C1CCN(c2nccc(-c3ccc4c(c3)OCCO4)n2)CC1 | > 50 |
| COc1ccccc1-c1nnc2sc(-c3ccc(N(C)C)cc3)nn12 | 1.04 (≈ 2.96 µM) |
| CCOc1ccc(CCNC(=O)c2ccc(Oc3ccccc3)cc2)cc1OCC | < 1 |
| O=S(=O)(Nc1ccccc1N1CCCCC1)c1ccc(Cl)s1 | 3.68 (≈ 10.3 µM) |
| Cn1cc(Br)c(C2N=C(Nc3nc4ccccc4o3)NC3=C2C(=O)CCC3)n1 (stereo not drawn) | 24.7 (≈ 56.1 µM) |
| O=S(=O)(Nc1nccs1)c1ccc(NCc2ccc(Cl)cc2O)cc1 | 1.32 (≈ 3.34 µM) |
| COc1cccc(CN2CCNc3cc(Nc4ccccc4)ncc3C2)c1 | 49.9 (≈ 139 µM) |
| CNc1nc(-c2cccc3ccccc23)ccc1C#N | < 1 |
| Fc1ccc(Oc2nc(-c3ccncc3)nc3ccccc23)cc1F | 6.95 (≈ 20.7 µM) |
| COc1cccc(CNc2ccc(S(=O)(=O)Nc3cccnc3)cc2)c1O | 3.93 (≈ 10.2 µM) |

| SMILES | solubility kinetic [µg/mL] |
| --- | --- |
| N#Cc1nc(-c2cccc3ccccc23)oc1Nc1ccccc1 | < 1 |
| CN(C)CCOC1=Cc2ccccc2Sc2ccc(Cl)cc21 | 26 (≈ 78.4 µM) |
| O=[S+]([O-])(Nc1cnc2ccccc2c1)c1ccc(NCc2ccc(Cl)cc2O)cc1 | < 1 |
| COc1ccc(-n2nc(C)c([C@@H]3C=C[C@@H](NCc4ccc(F)cc4)C3)c2C)cc1 | 42 (≈ 107 µM) |
| O=C(CCc1ccccc1)NC(c1cccs1)c1cc(Cl)c2cccnc2c1O (stereo not drawn) | < 1 |
| COc1ccc(OC)c(CN2CCNc3cc(Nc4ccccc4)ncc3C2)c1 | > 86 |
| CC[C@H](C)[C@@H]([C@@H](CC(=O)N1CCC[C@H]1[C@H](OC)[C@@H](C)C(=O)N[C@@H](Cc1ccccc1)c1nccs1)OC)N(C)C(=O)[C@@H](NC(=O)[C@H](C(C)C)N(C)C)C(C)C | 65.7 (≈ 83.7 µM) |
| Cn1nnnc1Sc1ncnc2scc(-c3cccc(S(C)(=O)=O)c3)c12 | 44.8 (≈ 111 µM) |
| Fc1cc(Nc2nc(-c3ccncc3)nc3ccccc23)ccc1-n1cncn1 | < 1 |
| COc1ccc(NC(=O)c2cc(-c3ccc[nH]3)n[nH]2)cc1OC | > 31 |
| COC(=O)Nc1nc2ccc(SC(C)C)cc2[nH]1 | < 1 |
| Cc1ccc(OCCn2c(CCNC(=O)c3ccccc3Br)nc3ccccc32)cc1 | < 1 |
| CN(C)c1cccc(-c2cnc(N3CCC(C(N)=O)CC3)nc2)c1 | 34.9 (≈ 107 µM) |
| O=c1c(-c2cccs2)ccc2n1C[C@H]1C[C@@H]2CN(C2CCOCC2)C1 | > 79 |
| Cc1ccc(-c2ccc(CNc3nc(-c4ccccc4C(C)C)ncc3C)cc2)cn1 | < 1 |
| CC(=O)N1CCc2c(sc3c2c(=O)n(-c2ccccc2Cl)c(=O)n3Cc2cccc(C)c2)C1 | 2.16 (≈ 4.5 µM) |
| N#Cc1ccc(-c2csc(N3CCC(C(N)=O)CC3)n2)cc1 | 4.34 (≈ 13.9 µM) |
| Oc1ccc(CNc2ccccc2C(F)(F)F)c2cccnc12 | 1.23 (≈ 3.85 µM) |
| Cc1ccc(S(=O)(=O)Nc2cnccc2C(=O)Nc2nc(-c3ccccc3)cs2)cc1 | 9.42 (≈ 20.9 µM) |
| COc1ncccc1-c1cc2c(ccn2C(C)C)c(C(=O)NCc2c(C)cc(C)[nH]c2=O)n1 | 10.1 (≈ 22.8 µM) |
| Cc1cc(C)nc(NC(=S)N2CCN(c3cccc(C(F)(F)F)n3)CC2)c1 | 20.6 (≈ 52 µM) |
| COc1ccnc(NC(=S)N2CCN(c3ccc(Cl)c(Cl)c3)CC2)c1 | 3.16 (≈ 7.96 µM) |
| N#Cc1nc(-c2cccc3ccccc23)oc1NC1COC1 | < 1 |
| O=S(=O)(Nc1nc2n(n1)C(c1ccccc1)C=C(c1ccc(Cl)cc1)N2)c1ccccc1 (stereo not drawn) | 1.09 (≈ 2.36 µM) |
| CCOc1ccc(N2C(=O)c3n[nH]c(-c4cccs4)c3C2c2cccc(F)c2)cc1 (stereo not drawn) | < 1 |

| SMILES | solubility kinetic [µg/mL] |
| --- | --- |
| CCOC(=O)c1ccc(NC(=O)c2sc3nc4c(cc3c2N)N2CCC4CC2)cc1 | < 1 |
| CCOc1ccccc1C(=O)NC1CCN(c2cc(C)cc(C)c2)C1=O (stereo not drawn) | 26.8 (≈ 75.9 µM) |
| Cc1c(Cl)cccc1-n1ncc(C(=O)Nc2ccc(Br)cc2F)c1C1CCNCC1 | > 72 |
| O=C(Nc1nc(-c2ccc(F)cc2)cs1)c1ccncc1NS(=O)(=O)c1ccc(F)cc1 | 30.2 (≈ 63.9 µM) |
| COc1cccc(CNc2ccc(S(=O)(=O)Nc3ccc(C4CCNCC4)cc3)cc2)c1O | 58.4 (≈ 125 µM) |
| CC(C)(C#N)c1ccc(N2C(=O)OCc3cnc4ccc(-c5cnc6ccccc6c5)cc4c32)cc1 | < 1 |
| O=[S+]([O-])(Nc1ccc(N2CCNCC2)cc1)c1ccc(NCc2ccc(Cl)cc2O)cc1 | 25.2 (≈ 53.3 µM) |
| Cc1ccc(S(=O)(=O)Nc2cnccc2C(=O)Nc2cccc3ccccc23)cc1 | 46.4 (≈ 111 µM) |
| Cc1ccc(S(=O)(=O)Nc2cnccc2C(=O)Nc2ccc(-c3nc4ccccc4[nH]3)cc2)cc1 | < 1 |
| C[C@@H]1CN(CC(=O)N2CC(C)(C)c3ncc(Cc4ccc(F)cc4)cc32)[C@@H](CN2CCOC[C@H]2C)CN1 | > 75 |
| CSc1ccc(/C=C/c2nc3ccccc3n2S(=O)(=O)c2ccc(Br)cc2)cc1 | 2.73 (≈ 5.63 µM) |
| NC(=O)C1CCN(c2nc(-c3ccc(Cl)cc3)cs2)CC1 | 1.52 (≈ 4.72 µM) |
| COc1cc(/C=C2\C(=O)Nc3ccccc32)ccc1O | 15 (≈ 56 µM) |
| O=C(NCCCn1ccnc1)c1ccc(-c2ncc3cnc(-c4cccc(F)c4)cn23)cc1 | 32.5 (≈ 73.9 µM) |
| NC(=O)C1CCN(c2ncc(-c3ccc4c(c3)OC(F)(F)O4)s2)CC1 | < 1 |
| Cc1ccccc1C(=O)NC1CCN(c2ccc3nnc(C4CC4)n3n2)CC1 | > 56 |
| CN[C@@H]1C[C@@H](c2ccc(Cl)c(Cl)c2)c2ccccc21 | > 43 |
| CCc1ccc(CNc2ccc3c(c2)ncn3C(C)(C)C)cc1 | 10.8 (≈ 35.3 µM) |
| COc1cccc2nc(-c3cccs3)nc(NN3C(=O)C=C(C)C3=O)c12 | > 54 |
| Cc1ccc(-c2csc(CCn3nc(C)c4c(C(F)(F)F)cc(=O)[nH]c43)n2)cc1 | < 1 |
| CC1=C(C(=O)Nc2nccs2)C(c2ccccc2Br)N=C(Nc2nc3ccccc3o2)N1 (stereo not drawn) | < 1 |
| O=C(c1ccccc1)N1CCC(C(=O)N2CCC(N3Cc4ccccc4C3=O)CC2)CC1 | > 43 |
| Cc1nnc(N2C(=O)c3oc4ccccc4c(=O)c3C2c2ccc(F)cc2)s1 (stereo not drawn) | < 1 |
| O=C1CCc2cc(S(=O)(=O)Nc3ccc(F)c(Cl)c3)c(F)cc2N1 | 13.4 (≈ 35.9 µM) |
| Cc1ccnc(N=C(N)N2CCN(c3cccc(C(F)(F)F)c3)CC2)c1 | 24.4 (≈ 67.2 µM) |

| SMILES | solubility kinetic [µg/mL] |
| --- | --- |
| O=C(Nc1ccccc1)C1CCN(c2nc(-c3ccc(Br)cc3)cs2)CC1 | 5.11 (≈ 11.5 µM) |
| CCOc1ccccc1C(=O)Nc1ccncc1C(=O)Nc1cccc(S(=O)(=O)C(F)(F)F)c1 | < 1 |
| CCOc1ccc(C2c3c(oc4ccc(C)cc4c3=O)C(=O)N2CCCN(C)C)cc1 (stereo not drawn) | > 62 |
| CC(C)(C)c1ccc(-c2ccc(=O)n(CC(=O)NCCc3ccccc3)n2)cc1 | < 1 |
| Cc1cc(-c2nnc3n2CCCCC3)c(C)n1-c1ccncc1 | 36 (≈ 117 µM) |
| Nc1nc(Nc2ccc(S(N)(=O)=O)cc2)nn1C(=O)c1c(F)cccc1F | 45.6 (≈ 116 µM) |
| Cc1ccc(CSCc2ccc(C(=O)NC3CC3)o2)cc1 | > 44 |
| Cc1ccc(S(=O)(=O)Nc2cnccc2C(=O)Nc2nc(-c3cc(Br)cs3)cs2)cc1 | 0.958 (≈ 1.79 µM) |
| Cc1cc(-c2nc(Nc3ccc(F)c(F)c3)c3ccccc3n2)cc(C)n1 | < 1 |
| Cc1ccnc(NC(=S)N2CCN(c3cc(Cl)cc(Cl)c3)CC2)c1 | 2.32 (≈ 6.09 µM) |
| Cc1ccc(-c2cc(C(=O)Nc3ncco3)c3ccccc3n2)cc1C | 4.24 (≈ 12.3 µM) |
| c1ccc(-c2ccc(CNc3nc(-c4ccccn4)nnc3-c3ccccc3)cc2)cc1 | < 1 |
| C=C1C(=O)O[C@@H]2[C@H]3O[C@]3(C)CC/C=C(\C)CC[C@@H]12 | 7.28 (≈ 29.3 µM) |
| Cc1cc(-c2nnc3n2CCCCC3)c(C)n1-c1cccc(C#N)c1 | > 49 |
| CC1(C)CCC(CN2CCN(c3ccc(C(=O)NS(=O)(=O)c4ccc(NCC5CCOCC5)c([N+](=O)[O-])c4)c(Oc4cnc5[nH]ccc5c4)c3)CC2)=C(c2ccc(Cl)cc2)C1 | < 1 |
| O=C1CCCCc2cc(O)c(O)cc21 | > 28 |
| N#Cc1cccc(-c2nccc(-n3ccnc3)n2)c1 | 7.26 (≈ 29.4 µM) |
| Cc1cc(-c2nnc3n2CCCCC3)c(C)n1-c1ccccc1 | > 45 |
| CC1=C(C(=O)Nc2nncs2)C(c2nn(C)cc2Cl)N=C(Nc2nc3ccccc3o2)N1 (stereo not drawn) | 16.3 (≈ 34.6 µM) |
| COc1ncccc1-c1cc2c(ccn2CC2CCN([S+](C)(=O)[O-])CC2)c(N2CCOCC2)n1 | 50.2 (≈ 103 µM) |
| Cc1ccc(C(=O)Nc2ccc3oc(-c4cccnc4)nc3c2)cc1[N+](=O)[O-] | < 1 |
| O=C(O)c1ccc(-c2c[nH]c3ncc(-c4ccccc4)cc23)cc1C1CCCC1 | 7.57 (≈ 19.8 µM) |
| CN1CC=C(c2nc(Nc3ccc(F)c(F)c3)c3ccccc3n2)CC1 | 33.8 (≈ 96 µM) |
